Columns and labels:
Assay type in all cases: in vivo
[1] = system: infection-free wheat plants of the cultivar Passat; assay: Glasshouse trial: green leaf area by visual scoring; settings: glasshouse
Procedure: (§1) In a glasshouse trial under controlled conditions, the effect of bixafen was investigated on the physiology, morphology and abiotic stress tolerance of infection-free wheat plants of the cultivar […] plants were grown in 10-litre containers over a period of 4 months. The substrate used was standard earth type ED 73 (Fröndenberg, Germany)+C-Horizont+Sand (4:2:1). The supply of nutrient to the plants took place by feeding with a 0.2% strength Flory 2 liquid fertilizer solution (from Euflor, Munich) once every two weeks. The plants were supplied with water as required. In each component of the trial, 10 repetitions were carried out. To prevent infestation with powdery mildew, Proquinazid (Talius® was applied once. The incidence of aphids and spider mites was avoided by treatments with Karate®, Bulldock® and Sumicidin®. The products under test were applied to the plants, in the form of sequential spray sequences (BBCH 39 and 59). The spray volume was 300 l of water per hectare. [table] The duration of the green coloration of the leaf area was captured on the basis of regular visual scoring of the fraction of the green leaf area.

[2] = system: infection-free wheat plants of the cultivar Passat; assay: Glasshouse trial: gas exchange activity of wheat ears; settings: development stage BBCH 75
Procedure: (§2) In a glasshouse trial under controlled conditions, the effect of bixafen was investigated on the physiology, morphology and abiotic stress tolerance of infection-free wheat plants of the cultivar […] plants were grown in 10-litre containers over a period of 4 months. The substrate used was standard earth type ED 73 (Fröndenberg, Germany)+C-Horizont+Sand (4:2:1). The supply of nutrient to the plants took place by feeding with a 0.2% strength Flory 2 liquid fertilizer solution (from Euflor, Munich) once every two weeks. The plants were supplied with water as required. In each component of the trial, 10 repetitions were carried out.

[3] = system: infection-free wheat plants of the cultivar Passat; assay: Glasshouse trial: size of the flag leaf; settings: at BBCH 83-85
Procedure: as §1, with “Morphological parameters measured, additionally, were the length and width, i.e. the size” for “The duration”, “flag leaf. This was greatest with” for “green coloration of”, “succinate dehydrogenase (SDH) inhibitor bixafen, in comparison to” for “leaf area was captured on”, “other comparison fungicides.” for “basis of regular visual scoring of the fraction of the green leaf area.”

[4] = system: infection-free wheat plants of the cultivar Passat; assay: Glasshouse trial: temperature of ears and leaves as measure of transpiration activity
Procedure: as §2

wheat variety Ritmo [5] = assay: Plot trial: yield components; settings: sprays at BBCH 39 and 59
wheat variety Ritmo [6] = assay: Plot trial in Germany: green leaf area by visual scoring; settings: sprays at BBCH 39 and 59
Procedure, shortened: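 Field plot trial in Germany, wheat variety Ritmo, bixafen products sprayed sequentially at BBCH 39 and 59 at 400 l water/ha, 5 repetitions. Green leaf area duration followed by regular visual scoring of green leaf fraction.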

[7] = system: infection-free wheat plants of the cultivar Passat; assay: Glasshouse trial: time of heading (ear emergence); set-up: time of heading of wheat (ears emerged): unit not given here
Procedure: as §2

wheat variety Ritmo [8] = assay: Plot trial: chlorophyll content of leaves (pigment extraction method of Ziegler and Ehle)
[9] = 68 days after second fungicide application (so in the source)
[10] = 75 days after second fungicide application (so in the source)
[11] = 82 days after second fungicide application (so in the source)
[12] = 89 days after second fungicide application (so in the source)
[13] = 96 days after second fungicide application (so in the source)
[14] = 103 days after second fungicide application (so in the source)
[15] = 110 days after second fungicide application (so in the source)
[16] = 117 days after second fungicide application (so in the source)
[17] = 7 days after second fungicide application
[18] = 14 days after second fungicide application
[19] = 21 days after second fungicide application
[20] = 28 days after second fungicide application
[21] = 35 days after second fungicide application
[22] = 42 days after second fungicide application

OC(Cc1ccccc1Cl)(Cn1nc[nH]c1=S)C1(Cl)CC1 (centres unmarked) [Prothioconazole]
green leaf area of the flag leaf (F) [1, 9]: 100 % leaf area | green leaf area of the second-from-top leaf (F-1) [1, 9]: 100 % leaf area | green leaf area of the third-from-top leaf (F-2) [1, 9]: 100 % leaf area | green leaf area of the flag leaf (F) [1, 10]: 100 % leaf area | green leaf area of the second-from-top leaf (F-1) [1, 10]: 100 % leaf area | green leaf area of the third-from-top leaf (F-2) [1, 10]: 95 % leaf area | green leaf area of the flag leaf (F) [1, 11]: 100 % leaf area | green leaf area of the second-from-top leaf (F-1) [1, 11]: 95 % leaf area | green leaf area of the third-from-top leaf (F-2) [1, 11]: 83 % leaf area | green leaf area of the flag leaf (F) [1, 12]: 95 % leaf area | green leaf area of the second-from-top leaf (F-1) [1, 12]: 83 % leaf area | green leaf area of the third-from-top leaf (F-2) [1, 12]: 53 % leaf area | green leaf area of the flag leaf (F) [1, 13]: 85 % leaf area | green leaf area of the second-from-top leaf (F-1) [1, 13]: 57 % leaf area | green leaf area of the third-from-top leaf (F-2) [1, 13]: 30 % leaf area | green leaf area of the flag leaf (F) [1, 14]: 62 % leaf area | green leaf area of the second-from-top leaf (F-1) [1, 14]: 30 % leaf area | green leaf area of the third-from-top leaf (F-2) [1, 14]: 17 % leaf area | green leaf area of the flag leaf (F) [1, 15]: 38 % leaf area | green leaf area of the second-from-top leaf (F-1) [1, 15]: 19 % leaf area | green leaf area of the third-from-top leaf (F-2) [1, 15]: 8 % leaf area | green leaf area of the flag leaf (F) [1, 16]: 15 % leaf area | green leaf area of the second-from-top leaf (F-1) [1, 16]: 5 % leaf area | green leaf area of the third-from-top leaf (F-2) [1, 16]: 0 % leaf area | Photosynthesis (gas exchange activity of wheat ears) [2]: −1.86 a CO2 per ear | Respiration (gas exchange activity of wheat ears) [2]: 2.12 ab CO2 per ear | Length of the flag leaf [3]: 26.7 cm | Width of the flag leaf [3]: 1.3 cm | Area of the flag leaf ([3]; calculated using the formula A = 0.67 × length × width): 23.26 cm^2 | Area [rel.] of the flag leaf ([3]; untreated = 100): 106 rel. | Temperature (as a measure of the transpiration activity) ([4]; BBCH 75, ear): 23.1 °C | Temperature (as a measure of the transpiration activity) ([4]; BBCH 75, leaf): 22.4 °C | Temperature (as a measure of the transpiration activity) ([4]; BBCH 80, ear): 19.5 °C | Temperature (as a measure of the transpiration activity) ([4]; BBCH 80, leaf): 16.6 °C | Temperature (as a measure of the transpiration activity) ([4]; BBCH 85, ear): 24.8 °C | Temperature (as a measure of the transpiration activity) ([4]; BBCH 85, leaf): 23.7 °C | Temperature (as a measure of the transpiration activity) ([4]; BBCH 90, ear): 24.2 °C | Temperature (as a measure of the transpiration activity) ([4]; BBCH 90, lear (so in the source)): 23.1 °C | Ears/m^2 (wheat variety Ritmo [5]): 397 | Harvest Index (wheat variety Ritmo [5]): 59.3 | Straw (wheat variety Ritmo [5]): 533 g m^−2 | TKM (thousand-kernel mass) (wheat variety Ritmo [5]): 46.3 g | Yield (wheat variety Ritmo [5]): 8.1 t ha^−1 | green leaf area of the flag leaf (wheat variety Ritmo [6]; [17]): 98.8 % leaf area | green leaf area of the second-from-top leaf (F-1) (wheat variety Ritmo [6]; [17]): 97.8 % leaf area | green leaf area of the third-from-top leaf (F-2) (wheat variety Ritmo [6]; [17]): 96.1 % leaf area | green leaf area of the flag leaf (wheat variety Ritmo [6]; [18]): 98.2 % leaf area | green leaf area of the second-from-top leaf (F-1) (wheat variety Ritmo [6]; [18]): 97.8 % leaf area | green leaf area of the third-from-top leaf (F-2) (wheat variety Ritmo [6]; [18]): 95.9 % leaf area | green leaf area of the flag leaf (wheat variety Ritmo [6]; [19]): 98.1 % leaf area | green leaf area of the second-from-top leaf (F-1) (wheat variety Ritmo [6]; [19]): 96.8 % leaf area | green leaf area of the third-from-top leaf (F-2) (wheat variety Ritmo [6]; [19]): 94.9 % leaf area | green leaf area of the flag leaf (wheat variety Ritmo [6]; [20]): 94.0 % leaf area | green leaf area of the second-from-top leaf (F-1) (wheat variety Ritmo [6]; [20]): 91.2 % leaf area | green leaf area of the third-from-top leaf (F-2) (wheat variety Ritmo [6]; [20]): 83.7 % leaf area | green leaf area of the flag leaf (wheat variety Ritmo [6]; [21]): 58.8 % leaf area | green leaf area of the second-from-top leaf (F-1) (wheat variety Ritmo [6]; [21]): 44.3 % leaf area | green leaf area of the third-from-top leaf (F-2) (wheat variety Ritmo [6]; [21]): 25.3 % leaf area | green leaf area of the flag leaf (wheat variety Ritmo [6]; [22]): 13.8 % leaf area | green leaf area of the second-from-top leaf (F-1) (wheat variety Ritmo [6]; [22]): 4.2 % leaf area | green leaf area of the third-from-top leaf (F-2) (wheat variety Ritmo [6]; [22]): 0 % leaf area | green leaf area of the second-from-top leaf (F-1) (wheat variety Ritmo [6]; 49 days after second fungicide application): 0 % leaf area | time of heading of wheat (ears emerged) ([7]; 45 days after sowing): 6.9 | time of heading of wheat (ears emerged) ([7]; 50 days after sowing): 29.0 | time of heading of wheat (ears emerged) ([7]; 55 days after sowing): 42.6 | time of heading of wheat (ears emerged) ([7]; 60 days after sowing): 48.2 | time of heading of wheat (ears emerged) ([7]; 65 days after sowing): 64.1 | time of heading of wheat (ears emerged) ([7]; 70 days after sowing): 77.9 | time of heading of wheat (ears emerged) ([7]; 75 days after sowing): 87.1 | time of heading of wheat (ears emerged) ([7]; 80 days after sowing): 94.9 | time of heading of wheat (ears emerged) ([7]; 85 days after sowing): 100 | Chlorophyll content (wheat variety Ritmo [8]; BBCH 75 (mature milk), leaf F): 1740 µg/g | Chlorophyll content (wheat variety Ritmo [8]; BBCH 75 (mature milk), leaf F-1): 1637 µg/g | Chlorophyll content (wheat variety Ritmo [8]; BBCH 75 (mature milk), leaf F-2): 1207 µg/g | Chlorophyll content (wheat variety Ritmo [8]; BBCH 85 (mature dough), leaf F): 211 µg/g | Chlorophyll content (wheat variety Ritmo [8]; BBCH 85 (mature dough), leaf F-1): 163 µg/g | Chlorophyll content (wheat variety Ritmo [8]; BBCH 85 (mature dough), leaf F-2): 116 µg/g
